pIC50: −log10 of the molar value.

The assay has as its target T1, human HSL (Homo sapiens, UniProt Q05469).
T1 construct: overlapping PCR to generate a full length human HSL ORF with a 3′-His6 tag; His6 (C); made in house; host or cells: High 5 insect cells (baculovirus, pFast-BAC)
T1 sequence (Q05469 1-1076): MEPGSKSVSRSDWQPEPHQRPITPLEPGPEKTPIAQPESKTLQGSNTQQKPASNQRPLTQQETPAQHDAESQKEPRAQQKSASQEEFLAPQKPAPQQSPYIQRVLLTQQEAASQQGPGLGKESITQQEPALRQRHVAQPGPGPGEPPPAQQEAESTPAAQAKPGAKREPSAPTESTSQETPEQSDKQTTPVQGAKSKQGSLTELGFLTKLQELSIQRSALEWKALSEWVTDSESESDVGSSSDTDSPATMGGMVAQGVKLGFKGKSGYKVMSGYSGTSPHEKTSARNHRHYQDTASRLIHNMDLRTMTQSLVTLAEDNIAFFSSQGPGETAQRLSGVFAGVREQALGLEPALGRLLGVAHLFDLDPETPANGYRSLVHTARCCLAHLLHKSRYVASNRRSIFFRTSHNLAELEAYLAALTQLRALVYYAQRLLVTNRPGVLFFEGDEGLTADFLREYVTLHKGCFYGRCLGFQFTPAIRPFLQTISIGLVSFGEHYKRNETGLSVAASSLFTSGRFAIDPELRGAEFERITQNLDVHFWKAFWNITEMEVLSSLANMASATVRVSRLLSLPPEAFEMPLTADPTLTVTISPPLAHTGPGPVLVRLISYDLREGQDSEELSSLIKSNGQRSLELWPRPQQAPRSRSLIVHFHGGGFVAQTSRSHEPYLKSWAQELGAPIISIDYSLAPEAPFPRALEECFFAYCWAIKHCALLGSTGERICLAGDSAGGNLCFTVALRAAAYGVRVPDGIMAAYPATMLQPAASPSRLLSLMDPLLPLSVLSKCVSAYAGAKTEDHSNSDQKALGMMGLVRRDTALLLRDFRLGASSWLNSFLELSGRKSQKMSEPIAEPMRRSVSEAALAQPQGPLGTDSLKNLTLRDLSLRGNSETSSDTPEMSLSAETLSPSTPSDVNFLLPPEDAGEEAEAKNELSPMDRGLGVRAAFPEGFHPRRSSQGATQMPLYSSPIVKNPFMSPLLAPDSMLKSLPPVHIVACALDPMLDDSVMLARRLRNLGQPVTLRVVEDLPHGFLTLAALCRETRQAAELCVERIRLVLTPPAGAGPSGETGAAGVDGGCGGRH
Put plainly: Human Hormone-Sensitive Lipase (HSL) Enzyme Inhibition Assay. Format: biochemical. The conditions noted are these: colorimetric assay, 2,3-dimercapto-1-propanol tributyrate (DMPT) substrate, 37° C. for 20 minutes, absorbance at 405 nm; read-out: HSL hum IC50. In a few lines:
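Colorimetric thioester hydrolysis: compounds in DMSO series mixed with DMPT (1.5 mM) in MOPS pH 7.2 with BSA, then baculovirus-expressed His6-tagged full-length human HSL added, 37° C, 20 min. DTNB plus detergents added, 15 min room temperature, absorbance at 405 nm.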
Regarding `CC(Oc1ccc(N2CCC3(CCN(S(=O)(=O)c4ccccc4OC(F)(F)F)CC3)C2=O)cc1)C(F)(F)F` (stereo not drawn) [Example 99, 8-(2-Trifluoromethoxy-benzenesulfonyl)-2-[4-(2,2,2-trifluoro-1-methyl-ethoxy)-phenyl]-2,8-diaza-spiro[4.5]decan-1-one], the pIC50 is 7.52. As to `CC(Oc1ccc(N2CCC3(CCN(S(=O)(=O)c4ccccc4C(F)(F)F)CC3)C2=O)cc1)C(F)(F)F` (stereo not drawn) [Example 100, 8-(2-Trifluoromethyl-benzenesulfonyl)-2-[4-(2,2,2-trifluoro-1-methyl-ethoxy)-phenyl]-2,8-diaza-spiro[4.5]decan-1-one], the pIC50 is 7.40. Next, `CC(Oc1ccc(N2CCC3(CCN(S(=O)(=O)c4ccccc4C(F)(F)F)CC3)C2=O)cc1)C(F)(F)F` (stereo not drawn) [Example 101]: 7.40; `CC(C)CS(=O)(=O)N1CCC2(CCN(c3ccc(OCCC(F)(F)F)cc3)C2=O)CC1` [Example 102, 8-(2-Methyl-propane-1-sulfonyl)-2-[4-(3,3,3-trifluoro-propoxy)-phenyl]-2,8-diaza-spiro[4.5]decan-1-one]: 6.44. Then `O=C1N(c2ccc(OCCC(F)(F)F)cc2)CCC12CCN(S(=O)(=O)c1ccccc1OC(F)(F)F)CC2` [Example 103, 8-(2-Trifluoromethoxy-benzenesulfonyl)-2-[4-(3,3,3-trifluoro-propoxy)-phenyl]-2,8-diaza-spiro[4.5]decan-1-one], with 7.30. For the molecule `O=C1N(c2ccc(I)cc2)CCC12CCN(S(=O)(=O)c1ccccc1OC(F)(F)F)CC2` [Example 104, 2-(4-Iodo-phenyl)-8-(2-trifluoromethoxy-benzenesulfonyl)-2,8-diaza-spiro[4.5]decan-1-one], the negative-log IC50 (pIC50) is 7.40. Then `COCCc1ccc(N2CCC3(CCN(S(=O)(=O)c4ccccc4OC(F)(F)F)CC3)C2=O)cc1` [Example 105, 2-[4-(2-Methoxy-ethyl)-phenyl]-8-(2-trifluoromethoxy-benzenesulfonyl)-2,8-diaza-spiro[4.5]decan-1-one], with 7.70. On to `COCCOc1ccc(N2CCC3(CCN(S(=O)(=O)c4ccccc4OC(F)(F)F)CC3)C2=O)cc1` [Example 106, 2-[4-(2-Methoxy-ethoxy)-phenyl]-8-(2-trifluoromethoxy-benzenesulfonyl)-2,8-diaza-spiro[4.5]decan-1-one], for which the pIC50 was 7.40. Next, `COCCCOc1ccc(N2CCC3(CCN(S(=O)(=O)CC(C)C)CC3)C2=O)cc1` [Example 107, 2-[4-(3-Methoxy-propoxy)-phenyl]-8-(2-methyl-propane-1-sulfonyl)-2,8-diaza-spiro[4.5]decan-1-one]: 6.13. On to `COCC(C)(C)c1ccc(N2CCC3(CCN(S(=O)(=O)CC(C)C)CC3)C2=O)cc1` [Example 108, 2-[4-(2-Methoxy-1,1-dimethyl-ethyl)-phenyl]-8-(2-methyl-propane-1-sulfonyl)-2,8-diaza-spiro[4.5]decan-1-one], for which the pIC50 was 7.00.

For `COCCCOc1ccc(N2CCC3(CCN(S(=O)(=O)c4ccccc4OC(F)(F)F)CC3)C2=O)cc1` [Example 109, 2-[4-(3-Methoxy-propoxy)-phenyl]-8-(2-trifluoromethoxy-benzenesulfonyl)-2,8-diaza-spiro[4.5]decan-1-one], the negative-log IC50 (pIC50) is 7.40. Next, `COCC(C)(C)c1ccc(N2CCC3(CCN(S(=O)(=O)c4ccccc4OC(F)(F)F)CC3)C2=O)cc1` [Example 110, 2-[4-(2-Methoxy-1,1-dimethyl-ethyl)-phenyl]-8-(2-trifluoromethoxy-benzenesulfonyl)-2,8-diaza-spiro[4.5]decan-1-one]: 7.52; `Cc1noc(C)c1S(=O)(=O)N1CCC2(CCN(c3ccc(OC(C)C)cc3)C2=O)CC1` [Example 111, 8-(3,5-Dimethyl-isoxazole-4-sulfonyl)-2-(4-isopropoxy-phenyl)-2,8-diaza-spiro[4.5]decan-1-one]: 6.96. As to `COCC(C)(C)c1ccc(N2CCC3(CCN(S(=O)(=O)c4c(C)noc4C)CC3)C2=O)cc1` [Example 112, 8-(3,5-Dimethyl-isoxazole-4-sulfonyl)-2-[4-(2-methoxy-1,1-dimethyl-ethyl)-phenyl]-2,8-diaza-spiro[4.5]decan-1-one], the pIC50 is 6.57.

Regarding `CC(Oc1ccc(N2CCC3(CCN(C(=O)C4(C)CC4(Cl)Cl)CC3)C2=O)cc1)C(F)(F)F` (stereo not drawn) [Example 113, 8-(2,2-Dichloro-1-methyl-cyclopropanecarbonyl)-2-[4-(2,2,2-trifluoro-1-methyl-ethoxy)-phenyl]-2,8-diaza-spiro[4.5]decan-1-one], the pIC50 was 6.85. With `O=C1N(c2ccc(OCC(F)(F)F)cc2)CCC12CCN(S(=O)(=O)c1ccccc1Cl)CC2` [Example 115, 8-(2-Chloro-benzenesulfonyl)-2-[4-(2,2,2-trifluoro-ethoxy)-phenyl]-2,8-diaza-spiro[4.5]decan-1-one], the negative logarithm of the IC50 (pIC50) is 7.52. Take `O=C1N(c2ccc(OCCC(F)(F)F)nc2)CCC12CCN(S(=O)(=O)c1ccccc1Cl)CC2` [Example 116, 8-(2-Chloro-benzenesulfonyl)-2-[6-(3,3,3-trifluoro-propoxy)-pyridin-3-yl]-2,8-diaza-spiro[4.5]decan-1-one]: the negative logarithm of the IC50 (pIC50) was 6.96. Then `O=C1N(c2ccc(OCC(F)(F)F)nc2)CCC12CCN(S(=O)(=O)c1ccccc1)CC2` [Example 117, 8-Benzenesulfonyl-2-[6-(2,2,2-trifluoro-ethoxy)-pyridin-3-yl]-2,8-diaza-spiro[4.5]decan-1-one], with 7.22; and `O=C1N(c2cnc(OCC(F)(F)F)nc2)CCC12CCN(S(=O)(=O)c1ccccc1)CC2` [Example 118, 8-Benzenesulfonyl-2-[2-(2,2,2-trifluoro-ethoxy)-pyrimidin-5-yl]-2,8-diaza-spiro[4.5]decan-1-one], with 6.33. Then `O=C1N(c2ccc(OCC(F)(F)F)nc2)CCC12CCN(S(=O)(=O)c1ccccc1Cl)CC2` [Example 119, 8-(2-Chloro-benzenesulfonyl)-2-[6-(2,2,2-trifluoro-ethoxy)-pyridin-3-yl]-2,8-diaza-spiro[4.5]decan-1-one], with 7.30. Next, `CC(C)(C)CC(=O)N1CCC2(CC1)CCN(c1ccc(OCC(F)(F)F)cc1)C2=O` [Example 120, 8-(3,3-Dimethyl-butyryl)-2-[4-(2,2,2-trifluoro-ethoxy)-phenyl]-2,8-diaza-spiro[4.5]decan-1-one]: 6.22.

Regarding `CC1(C(=O)N2CCC3(CC2)CCN(c2ccc(OCC(F)(F)F)cc2)C3=O)CC1(Cl)Cl` (stereo not drawn) [Example 121, 8-(2,2-Dichloro-1-methyl-cyclopropanecarbonyl)-2-[4-(2,2,2-trifluoro-ethoxy)-phenyl]-2,8-diaza-spiro[4.5]decan-1-one], the pIC50 was 6.70.

In the case of `CC(C)(C)CC(=O)N1CCC2(CC1)CCN(c1ccc(OCC(F)(F)F)nc1)C2=O` [Example 122, 8-(3,3-Dimethyl-butyryl)-2-[6-(2,2,2-trifluoro-ethoxy)-pyridin-3-yl]-2,8-diaza-spiro[4.5]decan-1-one], the pIC50 is 6.27. Then `CC(Oc1ccc(N2CCC3(CCN(C(=O)CC(C)(C)C)CC3)C2=O)cc1)C(F)(F)F` (stereo not drawn) [Example 123, 8-(3,3-Dimethyl-butyryl)-2-[4-(2,2,2-trifluoro-1-methyl-ethoxy)-phenyl]-2,8-diaza-spiro[4.5]decan-1-one], with 6.60.

The values are drawn from patent publication US8329904B2, “Azacyclic derivatives” (Hoffmann-La Roche Inc., priority 2009, dated 2012).
